From patent US4419348A, “Anthracycline glycoside compositions, their use and preparation” (priority 1981, dated 1983)
Entries after “also recorded” stand apart in the source; their conditions may differ. Where a name gives a salt, the structure may show the parent alone.

Columns and labels:
[1] = in vivo; cited from earlier work
[2] = pharmacokinetic studies; cited from earlier work
in vivo = conditions: mouse, iv, 4 mg/kg
Description: The physiologic disposition of free Adriamycin and of liposome encapsulated Adriamycin cardiolipin complex was determined in DBA/2 mice weighing 20-25 gm. Mice were injected with free Adriamycin and Adriamycin-cardiolipin complex encapsulated in liposomes via the tail vein at a dose of 4 mg/kg and at 2% body weight. At sequential time points from 5 minutes to 24 hours after drug administration, mice were bled through orbital sinus in hepanized tubes. Plasma was separated immediately and stored at -20° C. Four mice in each treatment group were killed by cervical dislocation and heart, liver, kidney, spleen, lungs and small intestine were rapidly excised, rinsed in 0.9% NaCl and stored at -20° C. until assayed.
Briefly, plasma was extracted with 5 volumes of 0.3 N HCl-50% ethanol and tissues were homogenized with 20 volumes of the acid alcohol. Plasma and tissue homogenates were centrifuged at 15,000 rpm for 10 minutes and the clear supernatant was assayed fluorometrically in a Perkin Elmer equipment at 470 nm excitation and 585 nm emission. Control tissues obtained from mice treated with blank liposomes were read similarly in the fluorometer to correct for any endogenous fluorescence. Fresh Adriamycin standards were prepared in ) 0.3 N HCl--50% ethanol each day to calculate the concentration of Adriamycin in the tissue samples.

[3] = Electron microscopy of cardiac tissue (cardiotoxicity); format: in vivo, DBA/2 mice; conditions: 15 mg/kg i.v.; day three, five and seven; listed as free Adriamycin, hydrochloride
Description: To determine whether the reduced cardiac uptake of Adriamycin in cardiolipin complex encapsulated liposomes prevented cardiotoxicity, electron microscope studies of this organ were performed. DBA/2 mice were injected i.v. with free drug or drug entrapped in cardiolipin complex encapsulated liposomes at a dose of 15 mg/kg. Three mice in each group were sacrificed by cervical dislocation on day three, five and seven and hearts were immediately removed and placed in physiological saline. The apex of the left ventricle with part of the septum was dissected out and minced into one cubic mm blocks and fixed in 2.5% glutaraldehyde buffered with 0.1 M cacodylate, pH 7.2 for two hours at room temperature. The specimens were rinsed in buffer, osmicated in Bennett and Luft's collidin buffered osmium tetroxide, dehydrated in graded ethanols and acetone, and embedded in Epon. For electron microscopy, preliminary 1 μm Epon sections were stained with alkaline toluidine blue and appropriate areas were chosen for ultrathin sectioning, following which random sections were taken on 200 mesh copper grids and stained with uranyl acetate and lead citrate. A JEOL 100 S Electron microscope at an accelerating voltage of 80 KeV was utilized for viewing the sections.

[4] = test system: murine P388 ascitic leukemia; experiment: Antitumor activity against P388 ascitic leukemia, survival; format: in vivo, DBA/2 mice; conditions: 4 mg/kg i.p., 24 hours after 1×10^5 P388 cells i.p.
Description: To determine whether encapsulation of Adriamycin cardiolipin complex into liposomes reduced the antitumor activity of the drug, the effectiveness of liposomes-encapsulated Adriamycin cardiolipin complex against the murine P388 ascitic leukemia in DBA/2 mice was studied. Mice were injected i.p with 1×10^5 cells of P388 leukemia. Twenty-four hours after tumor implanation, mice were administered intraperitoneally free Adriamycin or cardiolipin complex-encapsulated liposome at a dose of 4 mg/kg. Control mice received 0.9% NaCl or blank liposomes representing the same concentration of lipids as used to encapsulate Adriamycin cardiolipin complex. All injections were made on 2% body weight basis. Mice were weighed on day of injection, doses of drugs were calculated on body weight basis, and the survival time of mice was recorded in days.
Mice weighing 20 to 25 g were given i.p. injections of 10^5 cells and 24 hours later free or cardiolipin complex-encapsulated liposome Adriamycin was administered.

| SMILES | cardiotoxicity (in words) [1] | uptake by heart muscle (in words) [2] | Cmax (in vivo) | Tmax (in vivo) | myocardial toxic damage by electron microscopy [3] | cumulative dose correlated with cumulative myocardial damage [1] | T/C (Treated vs. Control), survival [4] |
| --- | --- | --- | --- | --- | --- | --- | --- |
| COc1cccc2c1C(=O)c1c(O)c3c(c(O)c1C2=O)C[C@@](O)(C(C)=O)C[C@@H]3O[C@H]1C[C@H](N)[C@H](O)[C@H](C)O1 [daunorubicin] | cardiotoxic effects | – | – | – | – | – | – |
| COc1cccc2c1C(=O)c1c(O)c3c(c(O)c1C2=O)C[C@@](O)(C(=O)CO)C[C@@H]3O[C@H]1C[C@H](N)[C@H](O)[C@H](C)O1 [Adriamycin, doxorubicin hydrochloride] | – | taken up avidly and preferentially by heart muscle | 8300 ng/g | 30 min | loss and fragmentation of myofilaments with concomitant clearing of organelles and swelling of sarcoplasmic areas; also recorded: degenerative changes with vacuolation of the smooth endoplasmic reticulum and loss of myofibrils; also recorded: Progression of damage could be seen with greater intensity on day 7 | > 500 mg/m^2 | 132% |
